The record followed here is ChEMBL document CHEMBL1139547, “Anesthetic potency of two novel synthetic polyhydric alkanols longer than the n-alkanol cutoff: evidence for a bilayer-mediated mechanism of anesthesia?” (J Med Chem, 2005).

What is called EC50 is the concentration giving half of the maximal effect. Read a high EC50 as a need for much substance.

The assay is described as follows: Effective concentration for phenotypic endpoint in tadpoles. Set-up: species or system frog, Tadpole.

`CCCCCCO` [1-HEXANOL] gave an EC50 of approximately 700 µM.
